Values joined by “and” are separate entries in the source; they are usually repeats but may differ in a detail not shown here. Identical values can stand only once. Counter-ions that a name gives are not always drawn.

Among the data in patent US7279575B2, “Pyrimidylpyrrole derivatives active as kinase inhibitors” (Pfizer Italia S.r.l., priority 2003, dated 2007) are IC50 values, retold here.

Sequence of Cdc7/Dbf4 (O00311 whole entry, species assumed): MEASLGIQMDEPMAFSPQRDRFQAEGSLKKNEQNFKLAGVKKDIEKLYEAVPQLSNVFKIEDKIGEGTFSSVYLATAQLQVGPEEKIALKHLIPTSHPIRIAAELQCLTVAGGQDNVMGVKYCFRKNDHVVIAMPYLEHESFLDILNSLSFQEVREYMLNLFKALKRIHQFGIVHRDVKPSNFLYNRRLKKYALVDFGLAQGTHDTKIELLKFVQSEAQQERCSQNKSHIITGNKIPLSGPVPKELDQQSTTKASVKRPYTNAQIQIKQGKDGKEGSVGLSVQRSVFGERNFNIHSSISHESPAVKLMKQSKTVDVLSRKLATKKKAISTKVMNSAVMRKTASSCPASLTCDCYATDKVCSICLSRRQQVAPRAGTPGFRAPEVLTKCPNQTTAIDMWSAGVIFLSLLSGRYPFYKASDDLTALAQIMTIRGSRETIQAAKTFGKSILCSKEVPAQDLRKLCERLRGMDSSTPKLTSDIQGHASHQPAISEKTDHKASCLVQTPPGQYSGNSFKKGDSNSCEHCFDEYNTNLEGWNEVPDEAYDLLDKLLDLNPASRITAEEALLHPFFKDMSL
Sequence of Cdc7/Dbf4 (Q9UBU7 whole entry partner, species assumed): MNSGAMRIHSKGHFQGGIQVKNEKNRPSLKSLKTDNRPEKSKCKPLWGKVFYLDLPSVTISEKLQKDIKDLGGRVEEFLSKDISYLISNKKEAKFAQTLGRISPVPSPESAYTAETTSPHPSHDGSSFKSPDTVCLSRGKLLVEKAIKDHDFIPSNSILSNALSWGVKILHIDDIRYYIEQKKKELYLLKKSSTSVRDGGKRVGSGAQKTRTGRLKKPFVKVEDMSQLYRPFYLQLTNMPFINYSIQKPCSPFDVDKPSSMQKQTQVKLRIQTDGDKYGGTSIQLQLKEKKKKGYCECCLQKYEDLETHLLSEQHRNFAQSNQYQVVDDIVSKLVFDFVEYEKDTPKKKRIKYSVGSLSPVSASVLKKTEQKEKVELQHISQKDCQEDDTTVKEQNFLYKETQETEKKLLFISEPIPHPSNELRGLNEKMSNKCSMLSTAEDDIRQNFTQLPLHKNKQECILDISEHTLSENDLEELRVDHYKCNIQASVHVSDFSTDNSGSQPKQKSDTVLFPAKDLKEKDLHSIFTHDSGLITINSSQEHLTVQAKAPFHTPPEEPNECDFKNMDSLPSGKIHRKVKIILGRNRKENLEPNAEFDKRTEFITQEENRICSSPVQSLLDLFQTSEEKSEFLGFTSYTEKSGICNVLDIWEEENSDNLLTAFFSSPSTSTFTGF

One assay concerns the target Cdc7/Dbf4 (Homo sapiens, UniProt O00311). The experiment in a line: Inhibition assay of Cdc7/Dbf4 activity (Dowex resin capture, 33P-ATP, MCM2 substrate). Format: biochemical. To be noted: MCM2 6 μM, ATP 2 μM, Cdc7/Dbf4 2 nM, 60 minutes at room temperature. The method, then: The inhibiting activity of putative Cdc7 inhibitors and the potency of selected compounds is determined through a method of assay based on the use of Dowex resin capture technology. The assay consists of the transfer of radioactivity labeled phosphate moiety by the kinase to an acceptor substrate. The resulting 33P-labeled product is separated from unreacted tracer, transferred into a scintillation cocktail and light emitted is measured in a scintillation counter.
Inhibition Assay of Cdc7/Dbf4 Activity
The inhibition assay of Cdc7/Dbf4 activity is performed according to the following protocol. The MCM2 substrate is trans-phosphorylated by the Cdc7/Dbf4 complex in the presence of ATP traced with γ^33-ATP. The reaction is stopped by addition of Dowex resin in the presence of formic acid. Dowex resin particles capture unreacted γ^33-ATP and drag it to the bottom of the well while ^33p phosphorylated MCM2 substrate remains in solution. The supernatant is collected, transferred into Optiplate plates and the extent of substrate phosphorylation is evaluated by β counting.
The inhibition assay of Cdc7/Dbf4 activity was performed in 96 wells plate according to the following protocol.
To each well of the plate were added: • 10 μl test compound (10 increasing concentrations in the nM to μM range to generate a dose-response curve). The solvent for test compounds contained 3% DMSO. (final concentration 1%) • 10 μl substrate MCM2 (6 μM final concentration), a mixture of cold ATP (2 μM final concentration) and radioactive ATP (1/5000 molar ratio with cold ATP). • 10 μl enzyme (Cdc7/Dbf4, 2 nM final concentration) that started the reaction. The buffer of the reaction consisted in 50 mM HEPES pH 7.9 containing 15 mM MgCl2, 2 mM DTT, 3 μM NaVO3, 2 mM glycerophosphate and 0.2 mg/ml BSA.
After incubation for 60 minutes at room temperature, the reaction was stopped by adding to each well 150 μl of Dowex resin in the presence of 150 mM formic acid. After another 60 min incubation, 50 μL of suspension were withdrawn and transferred into 96-well OPTIPLATEs containing 150 μl of MicroScint 40 (Packard); after 5-10 minutes shaking the plates were read for 1 min in a Packard TOP-Count radioactivity reader.
IC50 determination: inhibitors were tested at different concentrations ranging from 0.0005 to 10 μM. Experimental data were analyzed by the computer program Assay Explorer using the four parameter logistic equation: y=bottom+(top−bottom)/(1+10^((log|C50−x)*slope)) where x is the logarithm of the inhibitor concentration, y is the response; y starts at bottom and goes to top with a sigmoid shape.
For the compound `O=C1NCC(c2ccccc2)c2[nH]c(-c3ccnc(Nc4ccccc4)n3)cc21` (stereo not shown) [2-(2-anilinopyrimidin-4-yl)-7-phenyl-1,5,6,7-tetrahydro-4H-pyrrolo[3,2-c]pyridin-4-one hydrochloride], inhibition was half-maximal at 29 nM (IC50).

Compound `CC1CNC(=O)c2cc(-c3ccnc(N)n3)[nH]c21` (racemic) [2-(2-aminopyrimidin-4-yl)-7-methyl-1,5,6,7-tetrahydro-4H-pyrrolo[3,2-c]pyridin-4-one] returned a half-maximal inhibitory concentration (IC50) of 8 nM.

Compound `CC1CNC(=O)c2cc(-c3ccnc(N)n3)[nH]c21` (single isomer, unassigned) [(7R or 7S)-2-(2-aminopyrimidin-4-yl)-7-methyl-1,5,6,7-tetrahydro-4H-pyrrolo[3,2-c]pyridin-4-on] yielded an IC50 of 4 nM.

Take `O=C(Nc1nccc(-c2cc3c([nH]2)CCNC3=O)n1)c1ccccc1` [N-[4-(4-oxo-4,5,6,7-tetrahydro-1H-pyrrolo[3,2-c]pyridin-2-yl)pyrimidin-2-yl]benzamide]: the midpoint of inhibition, the IC50, lay at 300 nM.

For `CC(C)C1CNC(=O)c2cc(-c3ccnc(N)n3)[nH]c21` (stereo not shown) [2-(2-aminopyrimidin-4-yl)-7-isopropyl-1,5,6,7-tetrahydro-4H-pyrrolo[3,2-c]pyridin-4-one], the IC50 was 8 nM.

With `Nc1nccc(-c2[nH]c3c(c2I)C(=O)NCC3)n1` [2-(2-aminopyrimidin-4-yl)-3-iodo-1,5,6,7-tetrahydro-4H-pyrrolo[3,2-c]pyridin-4-one], 4 nM corresponded to half-maximal inhibition (IC50).

`O=C1NCCc2[nH]c(-c3ccnc(NCc4ccco4)n3)cc21` [2-{2-[(2-furylmethyl)amino]pyrimidin-4-yl}-1,5,6,7-tetrahydro-4H-pyrrolo[3,2-c]pyridin-4-one]: the half-maximal inhibitory concentration (IC50) is 74 nM and 87 nM.

In the case of `O=C1NCCc2[nH]c(-c3ncnc4[nH]cnc34)cc21` [2-(9H-purin-6-yl)-1,5,6,7-tetrahydro-4H-pyrrolo[3,2-c]pyridin-4-one hydrochloride], the concentration for half-maximal inhibition (IC50) turned out to be 200 nM.

Consider `O=C1NCCc2[nH]c(-c3ccncn3)cc21` [2-pyrimidin-4-yl-1,5,6,7-tetrahydro-4H-pyrrolo[3,2-c]pyridin-4-one hydrochloride], for which the midpoint of inhibition, the IC50, lay at 19 nM.

Regarding `CCOC(=O)Nc1nccc(-c2cc3c([nH]2)CCNC3=O)n1` [ethyl 4-(4-oxo-4,5,6,7-tetrahydro-1H-pyrrolo[3,2-c]pyridin-2-yl)pyrimidin-2-ylcarbamate], the IC50 is 80 nM.

Compound `O=C1NCCc2[nH]c(-c3ccnc(NCc4ccccc4)n3)cc21` [2-[2-(benzylamino)pyrimidin-4-yl]-1,5,6,7-tetrahydro-4H-pyrrolo[3,2-c]pyridin-4-one] displayed an IC50 of 270 nM.

Take `CC1CNC(=O)c2cc(-c3ccnc(N)n3)[nH]c21` (single isomer, unassigned) [(7R or 7S)-2-(2-aminopyrimidin-4-yl)-7-methyl-1,5,6,7-tetrahydro-4H-pyrrolo[3,2-c]pyridin-4-one]: the IC50 came out at 5 nM.

`CC1(C)Cc2[nH]c(-c3ccnc(N)n3)cc2C(=O)N1` [2-(2-aminopyrimidin-4-yl)-6,6-dimethyl-1,5,6,7-tetrahydro-4H-pyrrolo[3,2-c]pyridin-4-one hydrochloride] gave an IC50 of 32 nM.

`Nc1nccc(-c2cc3c([nH]2)C(c2ccccc2)CNC3=O)n1` (stereo not shown) [2-(2-aminopyrimidin-4-yl)-7-phenyl-1,5,6,7-tetrahydro-4H-pyrrolo[3,2-c]pyridin-4-one hydrochloride] came in with an IC50 of 15 nM.

Regarding `O=C1NCC(c2ccccc2)c2[nH]c(-c3ccncn3)cc21` (stereo not shown) [7-phenyl-2-pyrimidin-4-yl-1,5,6,7-tetrahydro-4H-pyrrolo[3,2-c]pyridin-4-one hydrochloride], the IC50 turned out to be 32 nM.

Take `Nc1nccc(-c2cc3c([nH]2)CCNC3=O)n1` [2-(2-aminopyrimidin-4-yl)-1,5,6,7-tetrahydro-4H-pyrrolo[3,2-c]pyridin-4-one hydrochloride]: half-maximal inhibition (IC50) was put at 11 nM.

Compound `O=C1NCCc2[nH]c(-c3ccnc(NCC4CCCCC4)n3)cc21` [2-{2-[(cyclohexylmethyl)amino]pyrimidin-4-yl}-1,5,6,7-tetrahydro-4H-pyrrolo[3,2-c]pyridin-4-one] displayed an IC50 of 680 nM.

With `O=C1NCCc2[nH]c(-c3ccnc(Nc4ccccc4)n3)cc21` [2-(2-phenylaminopyrimidin-4-yl)-1,5,6,7-tetrahydro-4H-pyrrolo[3,2-c]pyridin-4-one hydrochloride], the half-maximal inhibitory concentration (IC50) was found to be 7 nM.

`CCCNc1nccc(-c2cc3c([nH]2)CCNC3=O)n1` [2-[2-(propylamino)pyrimidin-4-yl]-1,5,6,7-tetrahydro4H-pyrrolo[3,2-c]pyridin-4-one] registered a half-maximal inhibitory concentration (IC50) of 310 nM.

`CC(C)CC1Cc2[nH]c(-c3ccnc(N)n3)cc2C(=O)N1` (stereo not shown) [2-(2-aminopyrimidin-4-yl)-6-isobutyl-1,5,6,7-tetrahydro-4H-pyrrolo[3,2-c]pyridin-4-one] showed a half-maximal inhibitory concentration (IC50) of 4 nM.

Turning to `CC1Cc2[nH]c(-c3ccnc(N)n3)cc2C(=O)N1` (stereo not shown) [2-(2-aminopyrimidin-4-yl)-6-methyl-1,5,6,7-tetrahydro-4H-pyrrolo[3,2-c]pyridin-4-one], the half-inhibitory concentration (IC50) worked out at 26 nM.

For the compound `CC1(C)CNC(=O)c2cc(-c3ccnc(N)n3)[nH]c21` [2-(2-aminopyrimidin-4-yl)-7,7-dimethyl-1,5,6,7-tetrahydro-4H-pyrrolo[3,2-c]pyridin-4-one], the IC50 worked out at 2 nM.

The compound `CCC1(CC)CNC(=O)c2cc(-c3ccnc(N)n3)[nH]c21` [2-(2-aminopyrimidin-4-yl)-7,7-diethyl-1,5,6,7-tetrahydro-4H-pyrrolo[3,2-c]pyridin-4-one] gave an IC50 of 7 nM.

The compound `CC(C)C1Cc2[nH]c(-c3ccnc(N)n3)cc2C(=O)N1` (stereo not shown) [2-(2-aminopyrimidin-4-yl)-6-isopropyl-1,5,6,7-tetrahydro-4H-pyrrolo[3,2-c]pyridin-4-one] yielded an IC50 of 9 nM.

`O=C1NCC(c2ccccc2)c2[nH]c(-c3ncnc4[nH]cnc34)cc21` (stereo not shown) [7-phenyl-2-(9H-purin-6-yl)-1,5,6,7-tetrahydro-4H-pyrrolo[3,2-c]pyridin-4-one hydrochloride] returned a half-inhibitory concentration (IC50) of 90 nM.

On to `CC(=O)Nc1ccc(CNc2nccc(-c3cc4c([nH]3)CCNC4=O)n2)cc1` [N-[4-({[4-(4-oxo-4,5,6,7-tetrahydro-1H-pyrrolo[3,2-c]pyridin-2-yl)pyrimidin-2-yl]amino}methyl)phenyl]acetamide trifluoroacetate], for which it took 300 nM to reach half-maximal inhibition (IC50).

In a further assay the target is cdk2/Cyclin A (Homo sapiens, UniProt P24941). The experiment in a line: Inhibition assay of cdk2/Cyclin A activity (SPA, biotinylated histone H1). Format: biochemical. As to conditions: histone H1 4 μM, ATP 10 μM, Cyclin A/CDK2 1.1 nM, 60 min at room temperature. The method, then:
The inhibiting activity of putative cdk/cyclin inhibitors and the potency of selected compounds may be determined through a method of assay based on the use of the SPA technology (Amersham Pharmacia Biotech).
The assay consists of the transfer of radioactivity labelled phosphate moiety by the kinase to a biotinylated substrate. The resulting 33P-labelled biotinylated product is allowed to bind to streptavidin-coated SPA beads (biotin capacity 130 pmol/mg), and light emitted was measured in a scintillation counter.
Inhibition Assay of cdk2/Cyclin A Activity
Kinase reaction: 4 μM in house biotinylated histone H1 (Sigma # H-5505) substrate, 10 μM ATP (0.1 microCi P^33γ-ATP), 1.1 nM Cyclin A/CDK2 complex, inhibitor in a final volume of 30 μl buffer (TRIS HCl 10 mM pH 7.5, MgCl2 10 mM, DTT 7.5 mM+0.2 mg/ml BSA) were added to each well of a 96 U bottom. After incubation for 60 min at room temperature, the reaction was stopped by addition of 100 μl PBS buffer containing 32 mM EDTA, 500 μM cold ATP, 0.1% Triton X100 and 10 mg/ml streptavidin coated SPA beads. After 20 min incubation, 110 μL of suspension were withdrawn and transferred into 96-well OPTIPLATEs containing 100 μl of 5M CsCl. After 4 hours, the plates were read for 2 min in a Packard TOP-Count radioactivity reader.
IC50 determination: inhibitors were tested at different concentrations ranging from 0.0015 to 10 μM. Experimental data were analyzed by the computer program GraphPad Prizm using the four parameter logistic equation: y=bottom+(top−bottom)/(1+10^((loglC50−x)*slope)) where x is the logarithm of the inhibitor concentration, y is the response; y starts at bottom and goes to top with a sigmoid shape.
Consider `O=C1NCCc2[nH]c(-c3ccnc(NCc4ccco4)n3)cc21` [2-{2-[(2-furylmethyl)amino]pyrimidin-4-yl}-1,5,6,7-tetrahydro-4H-pyrrolo[3,2-c]pyridin-4-one], for which the IC50 was determined as 80 nM.

Compound `O=C1NCCc2[nH]c(-c3ccnc(NCC4CCCCC4)n3)cc21` [2-{2-[(cyclohexylmethyl)amino]pyrimidin-4-yl}-1,5,6,7-tetrahydro-4H-pyrrolo[3,2-c]pyridin-4-one] registered a half-maximal inhibitory concentration (IC50) of 220 nM.

The compound `CC(C)CNc1nccc(-c2cc3c([nH]2)CCNC3=O)n1` [2-[2-(isobutylamino)pyrimidin-4-yl]-1,5,6,7-tetrahydro-4H-pyrrolo[3,2-c]pyridin-4-one] registered an IC50 of 50 nM.

Regarding `CCCNc1nccc(-c2cc3c([nH]2)CCNC3=O)n1` [2-[2-(propylamino)pyrimidin-4-yl]-1,5,6,7-tetrahydro4H-pyrrolo[3,2-c]pyridin-4-one], the IC50 came to 35 nM.

In turn, `CC(=O)Nc1ccc(CNc2nccc(-c3cc4c([nH]3)CCNC4=O)n2)cc1` [N-[4-({[4-(4-oxo-4,5,6,7-tetrahydro-1H-pyrrolo[3,2-c]pyridin-2-yl)pyrimidin-2-yl]amino}methyl)phenyl]acetamide trifluoroacetate] displayed a half-maximal inhibitory concentration (IC50) of 20 nM.

As usually defined, the IC50 is the midpoint of a concentration-inhibition curve. Lower therefore signals greater potency.
